Experimental data reported in ChEMBL document CHEMBL5505992, “Novel membrane-targeting isoxanthohumol-amine conjugates for combating methicillin-resistant Staphylococcus aureus (MRSA) infections” (Eur J Med Chem, 2024).
≈ marks a conversion by molar mass, not a printed value. Calls of active or inactive are those of the source. No cut-off for these calls is given here.

Experiments:
[1] = tested on: Staphylococcus aureus; assay: Antibacterial activity against Staphylococcus aureus ATCC 29213 measured after 16 to 18 hrs by CLSI method; format: functional; conditions: time 16-18 hrs
[2] = tested on: Staphylococcus aureus; assay: Antibacterial activity against methicillin-resistant Staphylococcus aureus clinical isolate MRSA-11 measured after 16 to 18 hrs by CLSI method; format: functional; conditions: time 16-18 hrs
[3] = tested on: Staphylococcus aureus; assay: Antibacterial activity against methicillin-resistant Staphylococcus aureus clinical isolate MRSA-13 measured after 16 to 18 hrs by CLSI method; format: functional; conditions: time 16-18 hrs
[4] = tested on: Staphylococcus aureus; assay: Antibacterial activity against methicillin-resistant Staphylococcus aureus clinical isolate MRSA-14 measured after 16 to 18 hrs by CLSI method; format: functional; conditions: time 16-18 hrs
[5] = tested on: Staphylococcus aureus; assay: Antibacterial activity against methicillin-resistant Staphylococcus aureus clinical isolate MRSA-16 measured after 16 to 18 hrs by CLSI method; format: functional; conditions: time 16-18 hrs
[6] = tested on: Staphylococcus aureus; assay: Antibacterial activity against methicillin-resistant Staphylococcus aureus clinical isolate MRSA-17 measured after 16 to 18 hrs by CLSI method; format: functional; conditions: time 16-18 hrs
[7] = tested on: Staphylococcus aureus; assay: Antibacterial activity against methicillin-resistant Staphylococcus aureus clinical isolate MRSA-18 measured after 16 to 18 hrs by CLSI method; format: functional; conditions: time 16-18 hrs
[8] = tested on: Staphylococcus aureus; assay: Antibacterial activity against methicillin-resistant Staphylococcus aureus clinical isolate MRSA-20 measured after 16 to 18 hrs by CLSI method; format: functional; conditions: time 16-18 hrs
[9] = tested on: Staphylococcus aureus; assay: Antibacterial activity against methicillin-resistant Staphylococcus aureus clinical isolate MRSA-21 measured after 16 to 18 hrs by CLSI method; format: functional; conditions: time 16-18 hrs
[10] = tested on: Staphylococcus aureus; assay: Antibacterial activity against methicillin-resistant Staphylococcus aureus clinical isolate MRSA-22 measured after 16 to 18 hrs by CLSI method; format: functional; conditions: time 16-18 hrs
[11] = tested on: Staphylococcus aureus; assay: Antibacterial activity against methicillin-resistant Staphylococcus aureus clinical isolate MRSA-23 measured after 16 to 18 hrs by CLSI method; format: functional; conditions: time 16-18 hrs
[12] = tested on: Escherichia coli; assay: Antibacterial activity against Escherichia coli ATCC25922 measured after 16 to 18 hrs by CLSI method; format: functional; conditions: time 16-18 hrs
[13] = Hemolytic activity in sheep erythrocytes incubated for 1 hr by absorbance based analysis; format: toxicity, cell-based, Ovis aries, Erythrocyte
[14] = Selectivity index, ratio of HC50 for hemolytic activity in sheep erythrocytes to MIC for antibacterial activity against Staphylococcus aureus ATCC 29213; format: toxicity, cell-based; conditions: read-out: Selectivity Index
[15] = tested on: Staphylococcus aureus; assay: Bactericidal activity against Staphylococcus aureus ATCC 29213 assessed as inhibition of bacterial growth at 8 times MIC measured within 0.5 to 1 hrs by time kill assay; format: functional, organism-based; conditions: time 0.5-1 hrs
[16] = tested on: Staphylococcus aureus; assay: Bactericidal activity against methicillin-resistant Staphylococcus aureus clinical isolate MRSA-16 assessed as inhibition of bacterial growth at 8 times MIC measured within 0.5 to 1 hrs by time kill assay; format: functional, organism-based; conditions: time 0.5-1 hrs
[17] = tested on: Staphylococcus aureus; assay: Antibacterial activity against methicillin-resistant Staphylococcus aureus infected in Kunming mouse skin infection model assessed as effect on skin abscesses in dorsal surface at 4 mg/kg,sc measured after 24 hrs; format: functional, organism-based
[18] = tested on: Staphylococcus aureus; assay: Antibacterial activity against methicillin-resistant Staphylococcus aureus infected in Kunming mouse skin infection model assessed as effect on skin abscesses at 4 mg/kg,sc measured after 24 hrs; format: functional, organism-based
[19] = tested on: Staphylococcus aureus; assay: Antibacterial activity against methicillin-resistant Staphylococcus aureus infected in Kunming mouse skin infection model assessed as reduction in inflammatory cells at 4 mg/kg,sc measured after 24 hrs; format: functional, organism-based
[20] = tested on: Staphylococcus aureus; assay: Antibacterial activity against methicillin-resistant Staphylococcus aureus infected in Kunming mouse skin infection model assessed as reduction in number of bacterial cells at 4 mg/kg,sc measured after 24 hrs; format: functional, organism-based
[21] = tested on: Staphylococcus aureus; assay: Antibacterial activity against methicillin-resistant Staphylococcus aureus infected in Kunming mouse skin infection model assessed as decrease in bacterial load at 4 mg/kg,sc measured after 24 hrs relative to control; format: functional; parameters: scale not given: the % may be the effect or the level left
[22] = tested on: Staphylococcus aureus; assay: Antibacterial activity against methicillin-resistant Staphylococcus aureus infected in Kunming mouse skin infection model assessed as decrease in bacterial load at 4 mg/kg,sc measured after 24 hrs; format: functional

CCCN(CCC)CCCOc1ccc(C2CC(=O)c3c(OC)cc(OCCCN(CCC)CCC)c(CC=C(C)C)c3O2)cc1 (stereo unspecified)
MIC [1]: 16 µg/mL (≈ 25.1 µM) | MIC [2]: 16 µg/mL (≈ 25.1 µM) | MIC [3]: 8 µg/mL (≈ 12.6 µM) | MIC [4]: 16 µg/mL (≈ 25.1 µM) | MIC [5]: 8 µg/mL (≈ 12.6 µM) | MIC [6]: 8 µg/mL (≈ 12.6 µM) | MIC [7]: 16 µg/mL (≈ 25.1 µM) | MIC [8]: 16 µg/mL (≈ 25.1 µM) | MIC [9]: 16 µg/mL (≈ 25.1 µM) | MIC [10]: 16 µg/mL (≈ 25.1 µM) | MIC [11]: 16 µg/mL (≈ 25.1 µM) | MIC [12]: > 128 µg/mL | HC50 at 1 h [13]: > 1280 µg/mL | selectivity ratio [14]: > 80

COc1cc(OCCCCCN2CCN(C)CC2)c(CC=C(C)C)c2c1C(=O)CC(c1ccc(OCCCCCN3CCN(C)CC3)cc1)O2 (stereo unspecified)
MIC [1]: 16 µg/mL (≈ 23.2 µM) | MIC [2]: 16 µg/mL (≈ 23.2 µM) | MIC [3]: 16 µg/mL (≈ 23.2 µM) | MIC [4]: 16 µg/mL (≈ 23.2 µM) | MIC [5]: 16 µg/mL (≈ 23.2 µM) | MIC [6]: 8 µg/mL (≈ 11.6 µM) | MIC [7]: 16 µg/mL (≈ 23.2 µM) | MIC [8]: 16 µg/mL (≈ 23.2 µM) | MIC [9]: 16 µg/mL (≈ 23.2 µM) | MIC [10]: 16 µg/mL (≈ 23.2 µM) | MIC [11]: 16 µg/mL (≈ 23.2 µM) | MIC [12]: > 128 µg/mL | HC50 at 1 h [13]: > 1280 µg/mL | selectivity ratio [14]: > 80

COc1cc(OCCCCN2CCCCC2C)c(CC=C(C)C)c2c1C(=O)CC(c1ccc(OCCCCN3CCCCC3C)cc1)O2 (stereo unspecified)
MIC [1]: 32 µg/mL (≈ 48.4 µM) | MIC [2]: 8 µg/mL (≈ 12.1 µM) | MIC [3]: 32 µg/mL (≈ 48.4 µM) | MIC [4]: 16 µg/mL (≈ 24.2 µM) | MIC [5]: 32 µg/mL (≈ 48.4 µM) | MIC [6]: 16 µg/mL (≈ 24.2 µM) | MIC [7]: 32 µg/mL (≈ 48.4 µM) | MIC [8]: 32 µg/mL (≈ 48.4 µM) | MIC [9]: 32 µg/mL (≈ 48.4 µM) | MIC [10]: 16 µg/mL (≈ 24.2 µM) | MIC [11]: 32 µg/mL (≈ 48.4 µM) | MIC [12]: > 128 µg/mL | HC50 at 1 h [13]: 275 µg/mL | selectivity ratio [14]: > 8.6

CN[C@H](CC(C)C)C(=O)N[C@H]1C(=O)N[C@@H](CC(N)=O)C(=O)N[C@H]2C(=O)N[C@H]3C(=O)N[C@H](C(=O)N[C@H](C(=O)O)c4cc(O)cc(O)c4-c4cc3ccc4O)[C@H](O)c3ccc(c(Cl)c3)Oc3cc2cc(c3O[C@@H]2O[C@H](CO)[C@@H](O)[C@H](O)[C@H]2O[C@H]2C[C@](C)(N)[C@H](O)[C@H](C)O2)Oc2ccc(cc2Cl)[C@H]1O [VANCOMYCIN]
Activity [15]: Active | Activity [16]: Active | Activity [17]: Active | Activity [18]: Active | Activity [19]: Active | Activity [20]: Active | Activity [21]: 97.67% | Activity [22]: 1.6 log10CFU/g

CCCCN(CCCC)CCCOc1ccc(C2CC(=O)c3c(OC)cc(OCCCN(CCCC)CCCC)c(CC=C(C)C)c3O2)cc1 (stereo unspecified)
MIC [1]: 8 µg/mL (≈ 11.5 µM) | MIC [2]: 8 µg/mL (≈ 11.5 µM) | MIC [3]: 8 µg/mL (≈ 11.5 µM) | MIC [4]: 4 µg/mL (≈ 5.77 µM) | MIC [5]: 4 µg/mL (≈ 5.77 µM) | MIC [6]: 4 µg/mL (≈ 5.77 µM) | MIC [7]: 8 µg/mL (≈ 11.5 µM) | MIC [8]: 8 µg/mL (≈ 11.5 µM) | MIC [9]: 8 µg/mL (≈ 11.5 µM) | MIC [10]: 4 µg/mL (≈ 5.77 µM) | MIC [11]: 8 µg/mL (≈ 11.5 µM) | MIC [12]: > 128 µg/mL | HC50 at 1 h [13]: 810 µg/mL | selectivity ratio [14]: 101

COc1cc(OCCCCN2CCOCC2)c(CC=C(C)C)c2c1C(=O)CC(c1ccc(OCCCCN3CCOCC3)cc1)O2 (stereo unspecified)
MIC [1]: 32 µg/mL (≈ 50.2 µM) | MIC [2]: 64 µg/mL (≈ 100 µM) | MIC [3]: 64 µg/mL (≈ 100 µM) | MIC [4]: 64 µg/mL (≈ 100 µM) | MIC [5]: > 128 µg/mL | MIC [6]: 32 µg/mL (≈ 50.2 µM) | MIC [7]: 32 µg/mL (≈ 50.2 µM) | MIC [8]: 32 µg/mL (≈ 50.2 µM) | MIC [9]: 64 µg/mL (≈ 100 µM) | MIC [10]: 32 µg/mL (≈ 50.2 µM) | MIC [11]: 32 µg/mL (≈ 50.2 µM) | MIC [12]: > 128 µg/mL | HC50 at 1 h [13]: > 640 µg/mL | selectivity ratio [14]: > 20

CCCC[N+](C)(CCCC)CCCCOc1ccc(C2CC(=O)c3c(OC)cc(OCCCC[N+](C)(CCCC)CCCC)c(CC=C(C)C)c3O2)cc1.[I-].[I-] (stereo unspecified)
MIC [1]: 0.5 µg/mL | MIC [2]: 0.5 µg/mL | MIC [3]: 0.5 µg/mL | MIC [4]: 0.5 µg/mL | MIC [5]: 0.25 µg/mL | MIC [6]: 0.25 µg/mL | MIC [7]: 0.5 µg/mL | MIC [8]: 0.5 µg/mL | MIC [9]: 0.5 µg/mL | MIC [10]: 1 µg/mL | MIC [11]: 0.5 µg/mL | MIC [12]: 32 µg/mL | HC50 at 1 h [13]: > 1280 µg/mL | selectivity ratio [14]: > 2640

COc1cc(OCCCCCN2CCCCC2)c(CC=C(C)C)c2c1C(=O)CC(c1ccc(OCCCCCN3CCCCC3)cc1)O2 (stereo unspecified)
MIC [1]: 8 µg/mL (≈ 12.1 µM) | MIC [2]: 8 µg/mL (≈ 12.1 µM) | MIC [3]: 8 µg/mL (≈ 12.1 µM) | MIC [4]: 8 µg/mL (≈ 12.1 µM) | MIC [5]: 8 µg/mL (≈ 12.1 µM) | MIC [6]: 4 µg/mL (≈ 6.05 µM) | MIC [7]: 8 µg/mL (≈ 12.1 µM) | MIC [8]: 8 µg/mL (≈ 12.1 µM) | MIC [9]: 8 µg/mL (≈ 12.1 µM) | MIC [10]: 8 µg/mL (≈ 12.1 µM) | MIC [11]: 8 µg/mL (≈ 12.1 µM) | MIC [12]: > 128 µg/mL | HC50 at 1 h [13]: 151 µg/mL | selectivity ratio [14]: 18.9
